Among the data in patent US9403813B2, “Azetidine amide derivatives as orexin receptor antagonists” (ACTELION PHARMACEUTICALS LTD, priority 2013, dated 2016) are IC50 values, retold here.

A word on the IC50: it is the concentration that inhibits the measured activity by half.

The target in experiment [1] is human orexin-2 receptor (Homo sapiens (Human), UniProt O43614). Briefly: Intracellular calcium measurements (FLIPR), antagonism of orexin-A response. The format is cell-based. As to conditions: CHO cells expressing human orexin-2 receptor, 3 nM orexin-A, geometric mean if determined several times, read-out: IC50 OX2. The method, boiled down:
(§1)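 CHO cells expressing human OX1 or OX2 receptor, loaded with fluo-4 AM plus probenecid, preincubated with antagonist 120 min before 3 nM orexin-A challenge. FLIPR calcium peak heights compared with agonist-plus-vehicle response. IC50 possibly normalized to on-plate reference; geometric mean of repeat determinations.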

In experiment [2] the target is human orexin-1 receptor (Homo sapiens (Human), UniProt O43613). The experiment is described as above. Type of experiment: cell-based. The note with it: CHO cells expressing human orexin-1 receptor, 3 nM orexin-A, geometric mean if determined several times, read-out: IC50 OX1. The method, boiled down:
as §1

Sequence of human orexin-2 receptor (O43614 whole entry): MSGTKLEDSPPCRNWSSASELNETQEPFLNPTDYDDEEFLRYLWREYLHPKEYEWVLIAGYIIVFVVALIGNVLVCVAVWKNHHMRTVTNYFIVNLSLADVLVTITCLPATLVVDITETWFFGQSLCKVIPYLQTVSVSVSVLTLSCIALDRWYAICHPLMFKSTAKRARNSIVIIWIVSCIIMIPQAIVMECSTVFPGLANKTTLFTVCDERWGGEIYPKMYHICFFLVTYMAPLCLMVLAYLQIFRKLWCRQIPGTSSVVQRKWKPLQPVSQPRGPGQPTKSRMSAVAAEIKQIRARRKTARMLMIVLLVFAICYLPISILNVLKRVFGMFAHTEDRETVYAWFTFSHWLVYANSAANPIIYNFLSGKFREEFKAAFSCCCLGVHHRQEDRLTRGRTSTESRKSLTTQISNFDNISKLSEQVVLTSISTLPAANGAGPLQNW
Sequence of human orexin-1 receptor (O43613 whole entry): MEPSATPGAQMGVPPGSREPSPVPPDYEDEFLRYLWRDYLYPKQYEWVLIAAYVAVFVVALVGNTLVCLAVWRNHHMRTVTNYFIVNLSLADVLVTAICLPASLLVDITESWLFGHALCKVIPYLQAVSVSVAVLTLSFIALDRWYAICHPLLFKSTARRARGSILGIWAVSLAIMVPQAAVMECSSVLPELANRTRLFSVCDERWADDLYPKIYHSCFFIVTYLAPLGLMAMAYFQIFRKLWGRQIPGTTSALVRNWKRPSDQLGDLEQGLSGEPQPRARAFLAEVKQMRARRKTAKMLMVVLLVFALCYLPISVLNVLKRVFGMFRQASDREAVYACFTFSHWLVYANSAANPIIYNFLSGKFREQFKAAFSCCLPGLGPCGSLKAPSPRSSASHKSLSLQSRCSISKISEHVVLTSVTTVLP

Turning to `CCOc1ncccc1-c1nc([C@@H]2CCN2C(=O)c2cc(C)c(C)cc2-n2nccn2)no1` [Example 91, (4,5-Dimethyl-2-[1,2,3]triazol-2-yl-phenyl)-{(S)-2-[5-(2-ethoxy-pyridin-3-yl)-[1,2,4]oxadiazol-3-yl]-azetidin-1-yl}-methanone], the IC50 in experiment [1] turned out to be 0.6 nM; in experiment [2] it was 17 nM.
The corresponding values for `CCOc1ncccc1-c1nc([C@@H]2CCN2C(=O)c2cc(OC)c(C)cc2-n2nccn2)no1` [Example 92, {(S)-2-[5-(2-Ethoxy-pyridin-3-yl)-[1,2,4]oxadiazol-3-yl]-azetidin-1-yl}-(5-methoxy-4-methyl-2-[1,2,3]triazol-2-yl-phenyl)-methanone] are 1 nM and 37 nM.
The matching figures for `Cc1ccc(-n2nccn2)c(C(=O)N2CC[C@H]2c2noc(-c3cccc(F)c3C)n2)c1` [Example 93, {(S)-2-[5-(3-Fluoro-2-methyl-phenyl)-[1,2,4]oxadiazol-3-yl]-azetidin-1-yl}-(5-methyl-2-[1,2,3]triazol-2-yl-phenyl)-methanone]: 8 nM and 655 nM.
As for `COc1cc(C(=O)N2CC[C@H]2c2noc(-c3ccccc3OC(F)(F)F)n2)c(-n2nccn2)cc1Cl` [Example 94, (4-Chloro-5-methoxy-2-[1,2,3]triazol-2-yl-phenyl)-{(S)-2-[5-(2-trifluoromethoxy-phenyl)-[1,2,4]oxadiazol-3-yl]-azetidin-1-yl}-methanone], the values for the IC50 in experiment [1] and in experiment [2] were 11 nM and 326 nM, respectively.
Consider `Cc1cc(-n2nccn2)c(C(=O)N2CC[C@H]2c2noc(-c3ccccc3OC(F)(F)F)n2)cc1Cl` [Example 95, (5-Chloro-4-methyl-2-[1,2,3]triazol-2-yl-phenyl)-{(S)-2-[5-(2-trifluoromethoxy-phenyl)-[1,2,4]oxadiazol-3-yl]-azetidin-1-yl}-methanone], for which the IC50 turned out to be 6 nM in experiment [1] and 60 nM in experiment [2].
The corresponding values for `COc1cc(C(=O)N2CC[C@H]2c2noc(-c3cccc(F)c3C)n2)c(-n2nccn2)cc1Cl` [Example 96, (4-Chloro-5-methoxy-2-[1,2,3]triazol-2-yl-phenyl)-{(S)-2-[5-(3-fluoro-2-methyl-phenyl)-[1,2,4]oxadiazol-3-yl]-azetidin-1-yl}-methanone] are 3 nM and 306 nM.
Consider `CCOc1ncccc1-c1nc([C@@H]2CCN2C(=O)c2ccc(C)cc2-n2nccn2)no1` [Example 97, {(S)-2-[5-(2-Ethoxy-pyridin-3-yl)-[1,2,4]oxadiazol-3-yl]-azetidin-1-yl}-(4-methyl-2-[1,2,3]triazol-2-yl-phenyl)-methanone], for which the figures for the IC50 in experiment [1] and in experiment [2] were 10 nM and 257 nM, respectively.
For `CCOc1ncccc1-c1nc([C@@H]2CCN2C(=O)c2cc(OC)c(Cl)cc2-n2nccn2)no1` [Example 98, (4-Chloro-5-methoxy-2-[1,2,3]triazol-2-yl-phenyl)-{(S)-2-[5-(2-ethoxy-pyridin-3-yl)-[1,2,4]oxadiazol-3-yl]-azetidin-1-yl}-methanone], the IC50 in experiment [1] was 1 nM; in experiment [2] it was 83 nM.
For the molecule `CCOc1ncccc1-c1nc([C@@H]2CCN2C(=O)c2cc(Cl)c(C)cc2-n2nccn2)no1` [Example 99, (5-Chloro-4-methyl-2-[1,2,3]triazol-2-yl-phenyl)-{(S)-2-[5-(2-ethoxy-pyridin-3-yl)-[1,2,4]oxadiazol-3-yl]-azetidin-1-yl}-methanone], the IC50 was found to be 1 nM in experiment [1] and 20 nM in experiment [2].
The corresponding values for `Cc1c(Cl)cccc1-c1nc([C@@H]2CCN2C(=O)c2ccccc2-n2nccn2)no1` [Example 100, {(S)-2-[5-(3-Chloro-2-methyl-phenyl)-[1,2,4]oxadiazol-3-yl]-azetidin-1-yl}-(2-[1,2,3]triazol-2-yl-phenyl)-methanone] are 34 nM and 820 nM.
For `Cc1ccc(-n2nccn2)c(C(=O)N2CC[C@H]2c2noc(-c3cccc(Cl)c3C)n2)c1` [Example 101, {(S)-2-[5-(3-Chloro-2-methyl-phenyl)-[1,2,4]oxadiazol-3-yl]-azetidin-1-yl}-(5-methyl-2-[1,2,3]triazol-2-yl-phenyl)-methanone], the IC50 in experiment [1] was 8 nM; in experiment [2], 88 nM.
On to `Cc1cc(C(=O)N2CC[C@H]2c2noc(-c3cccc(Cl)c3C)n2)c(-n2nccn2)cc1C` [Example 102, {(S)-2-[5-(3-Chloro-2-methyl-phenyl)-[1,2,4]oxadiazol-3-yl]-azetidin-1-yl}-(4,5-dimethyl-2-[1,2,3]triazol-2-yl-phenyl)-methanone], for which the IC50 in experiment [1] was 2 nM; in experiment [2] it was 41 nM.
The matching figures for `COc1cc(C(=O)N2CC[C@H]2c2noc(-c3cccc(Cl)c3C)n2)c(-n2nccn2)cc1C` [Example 103, {(S)-2-[5-(3-Chloro-2-methyl-phenyl)-[1,2,4]oxadiazol-3-yl]-azetidin-1-yl}-(5-methoxy-4-methyl-2-[1,2,3]triazol-2-yl-phenyl)-methanone]: 2 nM and 59 nM.
The corresponding values for `COc1cc(C(=O)N2CC[C@H]2c2noc(-c3cccc(Cl)c3C)n2)c(-n2nccn2)cc1Cl` [Example 104, (4-Chloro-5-methoxy-2-[1,2,3]triazol-2-yl-phenyl)-{(S)-2-[5-(3-chloro-2-methyl-phenyl)-[1,2,4]oxadiazol-3-yl]-azetidin-1-yl}-methanone] are 2 nM and 181 nM.
The corresponding values for `Cc1cc(-n2nccn2)c(C(=O)N2CC[C@H]2c2noc(-c3cccc(Cl)c3C)n2)cc1Cl` [Example 105, {(S)-2-[5-(3-Chloro-2-methyl-phenyl)-[1,2,4]oxadiazol-3-yl]-azetidin-1-yl}-(5-chloro-4-methyl-2-[1,2,3]triazol-2-yl-phenyl)-methanone] are 5 nM and 122 nM.
For the molecule `Cc1ccc(C(=O)N2CC[C@H]2c2noc(-c3cccc(Cl)c3C)n2)c(-n2nccn2)c1` [Example 106, {(S)-2-[5-(3-Chloro-2-methyl-phenyl)-[1,2,4]oxadiazol-3-yl]-azetidin-1-yl}-(4-methyl-2-[1,2,3]triazol-2-yl-phenyl)-methanone], the results for the IC50 in experiment [1] and in experiment [2] were 9 nM and 330 nM, respectively.
Turning to `Cc1c(Cl)cccc1-c1nc([C@@H]2CCN2C(=O)c2ccc(Cl)cc2-n2nccn2)no1` [Example 107, {(S)-2-[5-(3-Chloro-2-methyl-phenyl)-[1,2,4]oxadiazol-3-yl]-azetidin-1-yl}-(4-chloro-2-[1,2,3]triazol-2-yl-phenyl)-methanone], the values for the IC50 in experiment [1] and in experiment [2] were 13 nM and 317 nM, respectively.
The matching figures for `Cc1c(Cl)cccc1-c1nc([C@@H]2CCN2C(=O)c2ccc(C(F)(F)F)cc2-n2nccn2)no1` [Example 108, {(S)-2-[5-(3-Chloro-2-methyl-phenyl)-[1,2,4]oxadiazol-3-yl]-azetidin-1-yl}-(2-[1,2,3]triazol-2-yl-4-trifluoromethyl-phenyl)-methanone]: 28 nM and 759 nM.
Turning to `COc1c(Cl)cccc1-c1nc([C@@H]2CCN2C(=O)c2cc(C)ccc2-n2nccn2)no1` [Example 109, {(S)-2-[5-(3-Chloro-2-methoxy-phenyl)-[1,2,4]oxadiazol-3-yl]-azetidin-1-yl}-(5-methyl-2-[1,2,3]triazol-2-yl-phenyl)-methanone], the IC50 turned out to be 3 nM in experiment [1] and 132 nM in experiment [2].
The corresponding values for `COc1c(Cl)cccc1-c1nc([C@@H]2CCN2C(=O)c2cc(C)c(C)cc2-n2nccn2)no1` [Example 110, {(S)-2-[5-(3-Chloro-2-methoxy-phenyl)-[1,2,4]oxadiazol-3-yl]-azetidin-1-yl}-(4,5-dimethyl-2-[1,2,3]triazol-2-yl-phenyl)-methanone] are 1 nM and 46 nM.
The matching figures for `COc1cc(C(=O)N2CC[C@H]2c2noc(-c3cccc(Cl)c3OC)n2)c(-n2nccn2)cc1C` [Example 111, {(S)-2-[5-(3-Chloro-2-methoxy-phenyl)-[1,2,4]oxadiazol-3-yl]-azetidin-1-yl}-(5-methoxy-4-methyl-2-[1,2,3]triazol-2-yl-phenyl)-methanone]: 0.7 nM and 82 nM.
The corresponding values for `COc1cc(C(=O)N2CC[C@H]2c2noc(-c3cccc(Cl)c3OC)n2)c(-n2nccn2)cc1Cl` [Example 112, {(S)-2-[5-(3-Chloro-2-methoxy-phenyl)-[1,2,4]oxadiazol-3-yl]-azetidin-1-yl}-(4-chloro-5-methoxy-2-[1,2,3]triazol-2-yl-phenyl)-methanone] are 1 nM and 70 nM.
Consider `COc1c(Cl)cccc1-c1nc([C@@H]2CCN2C(=O)c2cc(Cl)c(C)cc2-n2nccn2)no1` [Example 113, {(S)-2-[5-(3-Chloro-2-methoxy-phenyl)-[1,2,4]oxadiazol-3-yl]-azetidin-1-yl}-(5-chloro-4-methyl-2-[1,2,3]triazol-2-yl-phenyl)-methanone], for which the IC50 in experiment [1] was found to be 1 nM; in experiment [2] it was 51 nM.
The matching figures for `Cc1ccc(-c2ccccc2)c(C(=O)N2CC[C@H]2c2noc(-c3cccc(Cl)c3C)n2)c1` [Example 114, {(S)-2-[5-(3-Chloro-2-methyl-phenyl)-[1,2,4]oxadiazol-3-yl]-azetidin-1-yl}-(4-methyl-biphenyl-2-yl)-methanone]: 2 nM and 26 nM.
Take `Cc1c(Cl)cccc1-c1nc([C@@H]2CCN2C(=O)c2cc(F)ccc2-c2ncccn2)no1` [Example 115, {(S)-2-[5-(3-Chloro-2-methyl-phenyl)-[1,2,4]oxadiazol-3-yl]-azetidin-1-yl}-(5-fluoro-2-pyrimidin-2-yl-phenyl)-methanone]: the IC50 was 122 nM in experiment [1] and 984 nM in experiment [2].
